{
  "source": "paper PMC12365235",
  "about": "“Molecular mechanisms of thiazide-like diuretics-mediated inhibition of the human Na-Cl cotransporter” (Nature Communications, 2025)",
  "key": {"hNCC(T352I)": {"biological_target": "T1, hNCC(T352I) (Homo sapiens, UniProt P55017, T352I)", "T1 construct": "expressed in transfected cells", "T1 sequence (P55017 1-1021 T352I)": "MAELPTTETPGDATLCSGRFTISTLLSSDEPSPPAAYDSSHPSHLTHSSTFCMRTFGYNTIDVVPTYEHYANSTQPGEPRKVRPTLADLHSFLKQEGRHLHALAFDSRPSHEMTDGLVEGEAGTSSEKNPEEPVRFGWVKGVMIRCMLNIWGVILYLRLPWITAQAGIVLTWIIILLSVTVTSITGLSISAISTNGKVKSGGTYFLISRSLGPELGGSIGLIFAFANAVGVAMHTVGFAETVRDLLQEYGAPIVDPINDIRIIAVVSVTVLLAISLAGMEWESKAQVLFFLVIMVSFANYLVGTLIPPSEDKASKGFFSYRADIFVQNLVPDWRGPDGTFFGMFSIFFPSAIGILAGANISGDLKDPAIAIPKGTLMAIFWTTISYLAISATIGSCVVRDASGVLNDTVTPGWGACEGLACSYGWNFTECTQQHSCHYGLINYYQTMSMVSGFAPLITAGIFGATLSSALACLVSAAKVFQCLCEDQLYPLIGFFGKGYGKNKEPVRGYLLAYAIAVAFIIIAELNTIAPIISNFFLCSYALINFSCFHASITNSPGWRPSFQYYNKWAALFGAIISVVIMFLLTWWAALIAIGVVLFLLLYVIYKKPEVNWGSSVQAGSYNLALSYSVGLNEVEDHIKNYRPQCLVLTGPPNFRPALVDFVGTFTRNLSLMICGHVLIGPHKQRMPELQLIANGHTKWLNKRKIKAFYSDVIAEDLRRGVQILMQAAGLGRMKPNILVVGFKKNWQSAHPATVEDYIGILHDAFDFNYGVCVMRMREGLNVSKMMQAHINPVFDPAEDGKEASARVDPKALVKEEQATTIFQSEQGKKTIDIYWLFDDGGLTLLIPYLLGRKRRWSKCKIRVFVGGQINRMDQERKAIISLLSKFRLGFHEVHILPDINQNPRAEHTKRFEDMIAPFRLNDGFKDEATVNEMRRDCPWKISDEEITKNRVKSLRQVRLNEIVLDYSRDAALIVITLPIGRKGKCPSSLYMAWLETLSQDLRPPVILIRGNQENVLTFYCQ", "assay": "125I- uptake assay, hNCC(T352I) variant", "type": "cell-based", "conditions": "100 μM polythiazide", "method": "(§1) HEK293S cell lines, cultured in 293 Freestyle medium (Life Technologies; plus 10% fetal bovine serum), stably expressing hNCC and its variants were generated following published protocols. Cells were transfected using Lipofectamine 3000 (Invitrogen) with a pSBbi-RP-based plasmid containing hNCC or its variants and the SB100X vector. Puromycin (2 μg/mL; Gemini Bio-Products) was used for selection of stable cell lines.\n(§2) To prepare for the uptake experiment, cells were plated at 0.5 × 10^6 cells/well in 24-well plates one day in advance. To activate NCC, cells were treated with a chloride-free hypotonic solution composed of 67.5 mM sodium-, 2.5 mM potassium-, 0.25 mM magnesium-, and 0.25 mM calcium-gluconate, as well as 7.5 mM HEPES pH 7.4 (buffered using Tris) at 37 °C for 10 min[72]. After the activation step, the experiments were carried out at room temperature. Ten minutes before the start of ^125I^− uptake, 70 μM Bumetanide (Thermo Scientific Chemicals) and 100 μM 4,4′-diisothiocyanatostilbene-2,2′-disulfonic acid (DIDS; Sigma) were added to suppress background iodide uptake activity. Indicated thiazide diuretics were also added to the indicated concentrations 10 min before the start of ^125I^− uptake. […] Cells lysed using 1% sodium dodecyl sulfate (SDS) were analyzed by scintillation counting."}, "hNCC(H234N)": {"biological_target": "T2, hNCC(H234N) (Homo sapiens, UniProt P55017, H234N)", "T2 construct": "expressed in transfected cells", "T2 sequence (P55017 1-1021 H234N)": "T1 sequence (P55017 1-1021 T352I) with H234N, I352T", "assay": "125I- uptake assay, hNCC(H234N) variant", "type": "cell-based", "conditions": "100 μM polythiazide", "method": "as §1, §2"}},
  "note": "Changes are numbered by the printed parent chain. Entries after “also recorded” stand apart in the source; their conditions may differ.",
  "data": [
    {"smiles": "CN1C(CSCC(F)(F)F)Nc2cc(Cl)c(S(N)(=O)=O)cc2S1(=O)=O", "note": "(centres unmarked) [polythiazide]", "values": [
      {"measurement": "inhibition of transport activity", "setting": "hNCC(T352I)", "value": "fully inhibited; also recorded: completely inhibited"},
      {"measurement": "inhibition of transport activity", "setting": "hNCC(H234N)", "value": "fully inhibited; also recorded: completely inhibited"}
    ]}
  ]
}
